One data set has as its system MCF-7. The data set is described as follows: cells. The following applies: for concentration of total growth inhibition: 72-hours incubation; for IC50: read-out: Inhibitory Concentration IC50. The procedure: In Vitro Study—MCF-7 Cell Proliferation
The tumor cells were obtained from American Type Culture Collection (ATCC HTB-22). The culture media used was Minimum Essential medium with 10% fetal bovine serum, and media were supplemented with 1% antibiotic-antimycotic. Aliquots of 100 μl of cell suspension (5×10^3/well) were placed in 96-well microtiter plates in an atmosphere of 5% CO2 at 37° C. After 24 hours, 100 μl of growth medium, 2 μl of test solution, mitomycin or vehicle (DMSO, final concentration 0.4%), was added respectively per well in duplicate for an additional 72-hours incubation. At the end of incubation, 20 μl of alamarBlue 75% reagent was added to each well for another 6-hour incubation before detection of cell viability by fluorescent intensity (excitation at 530 nm and emission at 590 nm).

Data set [1] deals with immature female rats (E2-stimulated uterus). The data set is described as follows: Immature female rat assay, antiuterotrophic activity. Type of data set: in vivo. An excerpt: (§1) In Vivo Studies—Immature Female Rat Assay.
Antiuterotrophic Activity
(§2) Experiments have been conducted as described in Eppenberger U et al, Am J Clin Oncol 14 (suppl. 2), S5-S14, 1991.
This concentration of E2 was the lowest producing near-maximal effect and was chosen on the basis of preliminary dose-response experiments.

Data set [2] relates to OVX rats. The data set is described as follows: Four-week OVX rat assay, serum cholesterol levels. Type of data set: in vivo. The following applies: for lowering of serum cholesterol levels, comparison in words: with respect to controls, compared with E2 / Compound II. The procedure:
(§3) The experiments have been conducted according to Kaln D N, Bone Mineral 15, 175-192, 1991 and Grese T A et al J Med Chem 40, 146-167, 1997.
(§4) The effects of the tested compounds were evaluated also in 9-11-month-old OVX rats that were dosed for 4 weeks post-surgery and compared with OVX and Sham controls.
(§5) Tissue-specific estrogen agonist effects were examined utilizing uterine weight, uterine histology, uterine eosinophil peroxidase activity (EPO), bone mineral density (BMD), and serum cholesterol levels as end points.
Effect on Serum Cholesterol Levels

For data set [3], the system named is immature female rats (uterine weight). The data set is described as follows: Immature female rat assay, uterotrophic activity. The format is in vivo. The conditions noted are these: for increase of uterine weight compared with vehicle treated control rats: 0.1 mg/kg/day; for uterine weights versus control rats: 0.01, 0.1, 1 and 10 mg/kg·day; for uterine weight versus control rats: 0.01, 1 and 10 mg/kg/day.
Text: as §1, §2

Data set [4] concerns OVX rats. The data set is described as follows: Four-week OVX rat assay, uterine effects (weight, eosinophil peroxidase, histology). The conditions noted are these: in vivo. As to the method: as §3, §4, §5
The degree of eosinophilic peroxidase induction of the uterus may be a useful marker for estrogen-effected growth responses (Lyttle C R and DeSombre E R Proc Natl Acad Sci USA 74, 3162-3166, 1977).

The test system of data set [5] is OVX rats. Kind of data set: Four-week OVX rat assay, bone mineral density (lumbar spine L1-4) by DEXA. The following applies: 4 weeks. The format is in vivo. As to the method:
Effects in the Ovariectomized (OVX) Rat Model
as §3, §4, §5
Effect on Bone Mineral Density (BMD) (Lumbar Spine L1-4)
Bone mineral density (BMD) was measured by DEXA (Dual Energy XRay Absorptiometry) using a Hologic QDR-1000 plus instrument equipped with dedicated software for small animal measurements. An ultrahigh-resolution mode (line spacing 0.0254 cm and resolution 0.0127 cm) was used with a collimator of 0.63 mm diameter. This technique provides an integrated measure of both cortical and trabecular bone.
In vivo DEXA measurements were carried out immediately before surgery (baseline scan) and 4 weeks after surgery. The anatomic region examined was the lumbar spine L1-4.
All animals were anesthetized before scanning with a mixture of ketamine and p-promazine. For each scan a rat was placed in a supine position with the spine parallel to the long axis of the densitometer table. The lumbar spine was scanned using the pelvic bones as landmark; analysis of this site was accomplished by dividing vertebra and intervertebral spaces with subregional high resolution software and including only target vertebra in the global region of interest.
Percent protection was calculated by the following formula: % protection=[(% chance BMDtest compound−% chance BMDOVX control)/(% chance BMDsham control−% chance BMDOVX control)]×100.

Another data set concerns the target human ER-β (Homo sapiens, UniProt Q92731). Kind of data set: Human estrogen receptor-β binding. The conditions noted are these: for affinity for ER-β higher than raloxifene: compared with raloxifene. An excerpt:
(§6) In Vitro Study—Human Estrogen Receptor-α and -β (ER-α and ER-β)

The next data set has as its target T1, human ER-α (Homo sapiens, UniProt P03372).
T1 sequence (P03372 1-595): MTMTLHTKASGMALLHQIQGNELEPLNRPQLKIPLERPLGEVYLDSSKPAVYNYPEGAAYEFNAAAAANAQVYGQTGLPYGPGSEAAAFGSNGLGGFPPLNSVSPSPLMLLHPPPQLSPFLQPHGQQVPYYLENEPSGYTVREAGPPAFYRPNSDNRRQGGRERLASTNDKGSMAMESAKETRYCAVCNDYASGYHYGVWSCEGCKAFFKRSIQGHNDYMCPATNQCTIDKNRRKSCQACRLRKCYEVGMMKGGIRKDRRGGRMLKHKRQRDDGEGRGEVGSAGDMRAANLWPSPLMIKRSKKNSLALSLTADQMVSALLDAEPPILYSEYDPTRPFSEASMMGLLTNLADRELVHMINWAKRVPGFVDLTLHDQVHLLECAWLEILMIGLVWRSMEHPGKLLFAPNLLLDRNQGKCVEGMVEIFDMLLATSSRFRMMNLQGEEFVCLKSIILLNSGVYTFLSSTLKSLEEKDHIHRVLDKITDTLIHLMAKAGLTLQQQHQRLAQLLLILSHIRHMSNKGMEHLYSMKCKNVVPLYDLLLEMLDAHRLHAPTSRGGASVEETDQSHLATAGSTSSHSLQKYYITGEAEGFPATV
The data set is described as follows: Human estrogen receptor-α binding.
Text: as §6

A short description of the next data set: Solubility in water. The format is physicochemical. The conditions noted are these: r.t.
The mark [6] stands for this setting: oral, E2 0.05 mg/kg per os for 3 days.

From patent publication US6951883B2, “2H-1-benzopyran derivatives processes for their preparation and pharmaceutical compositions thereof” (Chiesi Farmaceutici S.p.A., priority 2001, dated 2005) come the findings set out here.

human ER-β, sequence (Q92731 whole entry): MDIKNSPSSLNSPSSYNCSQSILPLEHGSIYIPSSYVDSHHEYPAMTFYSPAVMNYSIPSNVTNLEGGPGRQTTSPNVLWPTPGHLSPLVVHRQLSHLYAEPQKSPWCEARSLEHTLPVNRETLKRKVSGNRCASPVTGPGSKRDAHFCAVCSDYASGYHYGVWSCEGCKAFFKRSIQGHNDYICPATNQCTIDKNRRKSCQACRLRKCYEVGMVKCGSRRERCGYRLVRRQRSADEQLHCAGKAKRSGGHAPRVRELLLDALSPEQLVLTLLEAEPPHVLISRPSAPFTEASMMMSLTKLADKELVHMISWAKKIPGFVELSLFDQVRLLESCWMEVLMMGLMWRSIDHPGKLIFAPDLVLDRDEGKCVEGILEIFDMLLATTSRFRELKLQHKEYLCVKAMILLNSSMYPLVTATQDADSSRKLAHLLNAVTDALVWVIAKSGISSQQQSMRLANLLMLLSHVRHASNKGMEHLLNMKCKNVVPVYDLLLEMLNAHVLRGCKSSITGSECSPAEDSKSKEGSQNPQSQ

Regarding `O=C(c1ccc(OCCN2CCCCC2)cc1)c1c(-c2ccc(O)cc2)sc2cc(O)ccc12` [raloxifene], the “concentration of total growth inhibition” value in the data set with MCF-7 came to 18 µM. In the data set on MCF-7 (Homo sapiens, MCF7, 72 h), the IC50 turned out to be 11000 nM. Further, the “ED50 = dose required to produce 50% reduction in estradiol-stimulated growth” value in [1] (setting [6]) stood at 0.39 mg/kg·day. In addition, in the data set with OVX rats [2], the “lowering of serum cholesterol levels, comparison in words” value (“lowering of serum cholesterol levels” for short) is “significantly less potent”. For the same compound, in data set [3], the “increase of uterine weight compared with vehicle treated control rats” value is 32%, the “uterine weights versus control rats” value is on record as “not significantly different from control rats” and the “uterine weight versus control rats” value was “not significantly different from control rats”.

Take “17α-ethynil estradiol [reference compound]”: the “uterine epithelia / endometrium histology” value with OVX rats [4] is recorded as “full disappearance of epithelium atrophy”. In addition, the “% protection of BMD” value in the data set on OVX rats [5] (first experiment, 0.1 mg/kg) is recorded as roughly 50%; in the data set with OVX rats [5] (second experiment, 0.1 mg/kg) it was roughly 95%. The “increase of uterine wet weight compared with vehicle-treated controls” value in data set [1] (0.05 mg/kg per os for 3 days) is on record as 170-220%.

For orientation: Ki means the dissociation constant of the complex between target and ligand, obtained from inhibition or displacement. A high value points to lower affinity. On to `COc1ccc(C2=C(Cc3ccc(OCCN4CCCCC4)cc3)c3ccc(O)cc3OC2)cc1.Cl` [Compound II, 3-(4-methoxy)phenyl-4-[[4-[2-(1-piperidinyl)ethoxyl]phenyl]methyl]-2H-1-benzopyran-7-ol hydrochloride], for which the inhibitory constant (Ki) at human ER-β came out at 0.099 ± 0.005 nM; on human ER-α it was 0.017 ± 0.002 nM. In addition, the “affinity for ER-β higher than raloxifene” value at human ER-β is recorded as 16 fold. Further, the “% protection of BMD” value in the data set with OVX rats [5] (second experiment, 0.1 mg/kg) was 60%; with OVX rats [5] (second experiment, 1 mg/kg·day), 119%. Further, in [1] (oral), the “dose at which total antagonism of E2 uterotrophic action was observed” value is listed as 0.1-1 mg/kg·day. The “ED50 = dose required to produce 50% reduction in estradiol-stimulated growth” value in data set [1] (setting [6]) is 0.016 mg/kg·day. For the same compound, the “decrease of total serum cholesterol, inhibition” value in the data set on OVX rats [2] (0.1 mg/kg·day) is on record as 75%; in the data set on OVX rats [2] (1 mg/kg·day) it was 81%. For the same compound, the “lowering of serum cholesterol levels” value with OVX rats [2] is listed as “as efficacious as E2”. Further, the “uterine weights versus control rats” value in data set [3] is “not significantly different from control rats”.

As to `CC/C(=C(\c1ccccc1)c1ccc(OCCN(C)C)cc1)c1ccccc1` [tamoxifene], the “concentration of total growth inhibition” value in the data set on MCF-7 was 11 µM.

With `COc1ccc2c(c1)OC(C)(C)[C@@H](c1ccccc1)[C@@H]2c1ccc(OCCN2CCCC2)cc1` [levormeloxifene], in the data set on OVX rats [4], the “eosinophilic peroxidase activity compared to OVX uteri” value was “significantly increased” and the “uterine epithelia / endometrium histology” value is on record as “full disappearance of epithelium atrophy”. Further, the “inhibition of E2 stimulation of the uterus” value in data set [1] (at 1 mg/kg/day, partial antagonism) is given as 40-45%. Also, the “lowering of serum cholesterol levels” value in the data set with OVX rats [2] is “significantly less potent”. Further, the “uterine weights versus control rats” value in data set [3] was “significantly increased”. The “maximal agonist activity, % that of E2” value in data set [3] (at 1 mg/kg) is 60-65%.

By solubility is commonly meant the concentration that dissolves in the medium under given conditions. As for `CS(=O)(=O)O.Oc1ccc2c(c1)OCC(c1ccccc1)=C2Cc1ccc(OCCN2CCCCC2)cc1` [Example 43, 3-phenyl-4-(4-(2-(N-piperidinyl)ethoxy)benzyl)-7-hydroxychrom-3-ene methansulfonate (1:1)], in “Solubility in water”, the solubility is greater than 1000 µg/mL.

What is called ED50 is the midpoint of the dose-response relation. As for `Oc1ccc2c(c1)OCC(c1ccccc1)=C2Cc1ccc(OCCN2CCCCC2)cc1` [Compound I, 3-phenyl-4-(4-(2-(N-piperidinyl)ethoxy)benzyl)-7-hydroxychrom-3-ene], on human ER-β, the affinity, expressed as Ki, was 0.157 ± 0.028 nM and the “affinity for ER-β higher than raloxifene” value is listed as 10 fold. In addition, the “% protection of BMD” value with OVX rats [5] (first experiment, 10 mg/kg/day) is on record as 47%. The “concentration of total growth inhibition” value in the data set on MCF-7 came out at 11 µM. Also, the CC50 in the data set with MCF-7 (Homo sapiens, MCF7, 72 h, read-out: 50% lethal concentrations (LC50)) was 20000 nM. Besides, the IC50 in the data set on MCF-7 (Homo sapiens, MCF7, 72 h) turned out to be 6500 nM. For the same compound, the “dose at which total antagonism of E2 uterotrophic action was observed” value in data set [1] (oral) was 1 to 10 mg/kg/day. Further, in [1] (setting [6]), the “EC50, inhibition of the uterotrophic action of E2” value was 0.33 mg/kg·day. The “maximal lowering of cholesterol, inhibition relative to the OVX control” value in the data set on OVX rats [2] (10 mg/kg) amounted to 67%. Also, in the data set on OVX rats [2] (Rattus norvegicus, 672 h, 0.1-10 mg/kg day, 4 weeks, read-out: ED50, decrease of total serum cholesterol (half maximal efficacy)), the 50% effective dose (ED50) is 0.12 mg/kg. Affinity at human ER-α was put at a Ki of 0.041 ± 0.011 nM. For the same compound, in data set [3], the “increase of uterine weight compared with vehicle treated control rats” value is 17% and the “uterine weight versus control rats” value was “not significantly different from control rats”.
